Laboratory results taken from PubChem BioAssay (NCI).
“And” between values parts separate entries of the source, which are not always exact repeats. Identical values can stand only once.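 Test compounds were applied to cells in 96-well plates for 48 hours at 5 doses. GI50 = concentration required for 50% inhibition of growth. TGI is the concentration that stops growth completely.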

Assays:
Assay in all cases: growth of human tumour cells (NCI), 48 h
NCI/ADR-RES ovarian = system: NCI/ADR-RES ovarian
SF-539 CNS = system: SF-539 CNS
SW-620 colon = system: SW-620 colon
SNB-78 CNS = system: SNB-78 CNS
TK-10 renal = system: TK-10 renal
M19-MEL melanoma = system: M19-MEL melanoma
IGROV1 ovarian = system: IGROV1 ovarian
COLO 205 colon = system: COLO 205 colon
LOX IMVI melanoma = system: LOX IMVI melanoma
CCRF-CEM leukemia = system: CCRF-CEM leukemia

SMILES	TGI (NCI/ADR-RES ovarian)	TGI (SF-539 CNS)	TGI (SW-620 colon)	TGI (SNB-78 CNS) [µM]	TGI (TK-10 renal) [µM]	TGI (M19-MEL melanoma)	TGI (IGROV1 ovarian) [µM]	TGI (COLO 205 colon) [µM]	TGI (LOX IMVI melanoma) [µM]	TGI (CCRF-CEM leukemia) [µM]	GI50 (SNB-78 CNS)	GI50 (TK-10 renal)	GI50 (LOX IMVI melanoma) [µM]
CC(C)(C)c1nc2c(o1)C(=O)c1ccccc1C2=O	1.76 µM	3.4 µM	4.4 µM	39.1	11.7	2.84 µM	6.04	8.86	1.94	> 29.5			
CC(=O)OC1CC(n2cc(F)c(=O)[nH]c2=O)OC1CO (stereo not drawn)	> 100 µM	5.02 µM	> 86.8 µM	> 100	> 100	> 100 µM	> 100	> 100	> 63.8	> 100			
COc1ccc(/C(Cl)=C(\C=O)c2ccc([N+](=O)[O-])cc2)cc1OC	53.3 µM	30.8 µM	28.1 µM	56.5	> 47.3	24.3 µM	38.6	> 58.3	12.4	> 24.7			
CC[C@H]1CN2CCc3cc(OC)c(OC)cc3[C@@H]2C[C@@H]1C[C@H]1NCCc2cc(O)c(OC)cc21	> 100 µM and 10.7 µM	0.0648 µM and < 0.0237 µM and 0.0511 µM	0.0585 µM and < 0.0212 µM and 0.19 µM		0.0644	0.0492 µM and 0.0178 µM and 0.0876 µM		0.0187	0.0134		0.0266 µM and 0.0502 µM	0.0278 µM and < 0.0128 µM	0.00437
CCNCC(=O)O[C@]1(CC)C(=O)OCc2c1cc1n(c2=O)Cc2cc3ccccc3nc2-1	1.39 µM	0.574 µM	> 62.5 µM	> 100	99	5.44 µM	24.5	16.5	1.22	0.418			
O=S(O)CCCCCSSCCCCSSCCCCCS(=O)O		> 100 µM	> 100 µM	> 100	> 100	> 100 µM	> 100	> 100	> 100	> 100			
COc1ccc(/C=C2\CCCCC2=O)cc1		> 100 µM	> 100 µM	> 100	> 100	> 100 µM	> 100	> 100	> 100	> 100			
